Among the data in the supplement of paper PMC6045584 are surviving fraction values, retold here.

± gives the standard deviation of the averaged measurements.

Compound in test [1]: Cn1nnc2c(C(N)=O)ncn2c1=O [TEMOZOLOMIDE]
The test can be described thus: surviving fraction relative to DMSO-only wells; higher = less growth inhibition. Conditions: exposure time: 5 days. Summed up: (§1)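 In 384-well plates, 250–500 log-phase tumour cells per well were given 24 hours before five days of continuous exposure to inhibitors at 0.5, 1, 5, 10, 50, 100, 500 and 1000 nM. Surviving fraction is luminescence from CellTiter-Glo, normalised to the median of wells containing DMSO alone. Reading took place after 10 minutes at room temperature.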

Compound in test [2]: C[C@@H](Oc1cc(-c2cnn(C3CCNCC3)c2)cnc1N)c1c(Cl)ccc(F)c1Cl [CRIZOTINIB]
The description is as above. Conditions: exposure time: 5 days. Summed up: as §1

OS25HAL BONE: the surviving fraction in test [1] (0.5 nM) turned out to be 1.02 ± 0.037; in test [1] (1 nM), 1.09 ± 0.031; in test [1] (5 nM), 1.06 ± 0.019; in test [1] (10 nM) it was 1.11 ± 0.023; in test [1] (50 nM), 1.02 ± 0.033; in test [1] (100 nM), 1.09 ± 0.03. For the same test system, the surviving fraction in test [1] (500 nM) was 1.07 ± 0.051; in test [1] (1000 nM), 1.08 ± 0.041; in test [2] (0.5 nM), 1.06 ± 0.031; in test [2] (1 nM), 1.01 ± 0.028; in test [2] (500 nM), 0.929 ± 0.098; in test [2] (1000 nM), 0.326 ± 0.016.
For CAL120 BREAST, the surviving fraction in test [1] (0.5 nM) worked out at 0.948 ± 0.059; in test [1] (1 nM), 0.963 ± 0.033; in test [1] (5 nM) it was 0.99 ± 0.048; in test [1] (10 nM) it was 0.96 ± 0.075; in test [1] (50 nM), 0.976 ± 0.075; in test [1] (100 nM) it was 0.988 ± 0.016. Also, the surviving fraction worked out at 0.988 ± 0.053 in test [1] (500 nM); 0.989 ± 0.025 in test [1] (1000 nM); 0.969 ± 0.069 in test [2] (0.5 nM); 1 ± 0.076 in test [2] (1 nM); 0.982 ± 0.038 in test [2] (5 nM); 1 ± 0.04 in test [2] (50 nM). The surviving fraction stood at 1.01 ± 0.049 in test [2] (100 nM), 0.933 ± 0.012 in test [2] (500 nM) and 0.685 ± 0.026 in test [2] (1000 nM).
As to SUM149.B1*.S BREAST, the surviving fraction in test [1] (0.5 nM) worked out at 1 ± 0.026; in test [1] (1 nM), 1.05 ± 0.023; in test [1] (5 nM) it was 1.08 ± 0.062; in test [1] (10 nM), 1.11 ± 0.038; in test [1] (50 nM), 1.07 ± 0.067; in test [1] (100 nM) it was 1.13 ± 0.073. Also, the surviving fraction in test [1] (500 nM) stood at 1.07 ± 0.023; in test [1] (1000 nM) it was 1.15 ± 0.085; in test [2] (0.5 nM) it was 1.12 ± 0.043; in test [2] (1 nM), 1.19 ± 0.041; in test [2] (5 nM), 1.15 ± 0.052; in test [2] (10 nM) it was 1.14 ± 0.067. In addition, the surviving fraction in test [2] (50 nM) worked out at 1.13 ± 0.058; in test [2] (100 nM) it was 1.18 ± 0.059; in test [2] (500 nM) it was 1.11 ± 0.029; in test [2] (1000 nM), 1.03 ± 0.047.
For “JURKAT HAEMATOPOIETIC AND LYMPHOID TISSUE”, the surviving fraction is 1.06 ± 0.019 in test [1] (0.5 nM); 1.08 ± 0.024 in test [1] (1 nM); 1.05 ± 0.032 in test [1] (5 nM); 1.05 ± 0.02 in test [1] (10 nM); 1.04 ± 0.029 in test [1] (50 nM); 1.01 ± 0.029 in test [1] (100 nM). Also, the surviving fraction in test [1] (500 nM) came out at 1.02 ± 0.02; in test [1] (1000 nM) it was 1.04 ± 0.013; in test [2] (0.5 nM), 1.04 ± 0.011; in test [2] (10 nM), 0.96 ± 0.035; in test [2] (100 nM) it was 0.928 ± 0.028; in test [2] (500 nM), 0.212 ± 0.0087. In addition, the surviving fraction in test [2] (1000 nM) was determined as 0.306 ± 0.011.
With YAMATO SYNOVIAL, the surviving fraction in test [1] (0.5 nM) stood at 1.14 ± 0.05; in test [1] (1 nM), 1.16 ± 0.055; in test [1] (5 nM) it was 1.27 ± 0.13; in test [1] (10 nM), 1.35 ± 0.076; in test [1] (50 nM), 1.22 ± 0.083; in test [1] (100 nM), 1.4 ± 0.1. For the same test system, the surviving fraction was 1.31 ± 0.12 in test [1] (500 nM); 1.38 ± 0.095 in test [1] (1000 nM); 1.13 ± 0.056 in test [2] (0.5 nM); 1.1 ± 0.15 in test [2] (1 nM); 1.2 ± 0.14 in test [2] (5 nM); 1.1 ± 0.1 in test [2] (10 nM). Moreover, the surviving fraction in test [2] (50 nM) came out at 0.563 ± 0.036; in test [2] (100 nM) it was 0.324 ± 0.031; in test [2] (500 nM) it was 0.221 ± 0.021; in test [2] (1000 nM), 0.269 ± 0.021.
With MG63 BONE, the surviving fraction in test [1] (0.5 nM) was found to be 0.964 ± 0.016; in test [1] (1 nM), 1.01 ± 0.036; in test [1] (5 nM) it was 1.03 ± 0.026; in test [1] (10 nM), 1.09 ± 0.035; in test [1] (50 nM), 1.01 ± 0.032; in test [1] (100 nM), 1.1 ± 0.047. The surviving fraction in test [1] (500 nM) is 0.997 ± 0.031; in test [1] (1000 nM), 1.02 ± 0.032; in test [2] (0.5 nM), 1.05 ± 0.04; in test [2] (1 nM) it was 1.07 ± 0.053; in test [2] (10 nM), 1.11 ± 0.043; in test [2] (50 nM), 1.07 ± 0.051. Moreover, the surviving fraction in test [2] (100 nM) was 1 ± 0.052; in test [2] (500 nM), 0.827 ± 0.034; in test [2] (1000 nM), 0.743 ± 0.031.
Consider COLO320DM LARGE INTESTINE, for which the surviving fraction worked out at 1.21 ± 0.13 in test [1] (0.5 nM); 1.1 ± 0.036 in test [1] (1 nM); 1.13 ± 0.055 in test [1] (5 nM); 1.17 ± 0.12 in test [1] (10 nM); 1.1 ± 0.035 in test [1] (50 nM); 1.142 ± 0.011 in test [1] (100 nM). The surviving fraction in test [1] (500 nM) amounted to 1.15 ± 0.014; in test [1] (1000 nM), 1.06 ± 0.047; in test [2] (0.5 nM), 1.13 ± 0.11; in test [2] (1 nM) it was 1.12 ± 0.055; in test [2] (5 nM), 1.11 ± 0.056; in test [2] (10 nM), 1.04 ± 0.092. Besides, the surviving fraction was 1.21 ± 0.051 in test [2] (50 nM), 1.12 ± 0.092 in test [2] (100 nM), 0.622 ± 0.015 in test [2] (500 nM) and 0.398 ± 0.043 in test [2] (1000 nM).
Consider CADOES1 SOFT TISSUE, for which the surviving fraction was 0.965 ± 0.14 in test [1] (0.5 nM); 0.979 ± 0.071 in test [1] (1 nM); 0.907 ± 0.07 in test [1] (5 nM); 0.877 ± 0.032 in test [1] (10 nM); 0.956 ± 0.068 in test [1] (50 nM); 0.937 ± 0.04 in test [1] (100 nM). The surviving fraction in test [1] (500 nM) came to 0.968 ± 0.096; in test [1] (1000 nM), 0.969 ± 0.12; in test [2] (1 nM), 0.892 ± 0.084; in test [2] (5 nM), 0.953 ± 0.13; in test [2] (10 nM), 0.91 ± 0.11; in test [2] (50 nM), 0.902 ± 0.073. The surviving fraction in test [2] (100 nM) worked out at 0.949 ± 0.077; in test [2] (500 nM) it was 0.713 ± 0.18; in test [2] (1000 nM), 0.314 ± 0.06.
On to SG27 HEADNECK, for which the surviving fraction in test [1] (0.5 nM) was 1.13 ± 0.058; in test [1] (1 nM), 1.1 ± 0.11; in test [1] (5 nM) it was 1.02 ± 0.054; in test [1] (10 nM), 1.09 ± 0.019; in test [1] (50 nM) it was 1.04 ± 0.061; in test [1] (100 nM), 1.16 ± 0.14. For the same test system, the surviving fraction in test [1] (500 nM) amounted to 1.22 ± 0.048; in test [1] (1000 nM) it was 1.21 ± 0.15; in test [2] (0.5 nM), 1.25 ± 0.084; in test [2] (1 nM) it was 1.09 ± 0.11; in test [2] (10 nM), 1.14 ± 0.022; in test [2] (50 nM), 1.12 ± 0.17. Further, the surviving fraction in test [2] (100 nM) turned out to be 1.11 ± 0.091; in test [2] (500 nM) it was 1.18 ± 0.13.
